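How tested: cells in 96-well plates exposed to compound for 48 hours at five concentrations. Here, GI50 denotes the concentration required for 50% inhibition of growth. TGI: total growth inhibition.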
Key:
Experiment in all cases: NCI-60 cell line screen, 48 h
[1] = tested on: NCI-H460 lung
[2] = tested on: EKVX NSCLC
[3] = tested on: U251 CNS
[4] = tested on: MOLT-4 leukemia
[5] = tested on: SK-MEL-28 melanoma
[6] = tested on: IGROV1 ovarian
[7] = tested on: SNB-75 CNS
[8] = tested on: NCI/ADR-RES ovarian
[9] = tested on: SF-539 CNS
[10] = tested on: OVCAR-8 ovarian
[11] = tested on: KM12 colon
[12] = tested on: HL-60(TB) leukemia
[13] = tested on: UO-31 renal
[14] = tested on: SNB-19 CNS
[15] = tested on: HOP-92 NSCLC
[16] = tested on: SF-268 CNS
[17] = tested on: MALME-3M melanoma
[18] = tested on: CCRF-CEM leukemia
[19] = tested on: HOP-62 NSCLC
[20] = tested on: SR leukemia
[21] = tested on: UACC-62 melanoma
[22] = tested on: HCC-2998 colon
[23] = tested on: TK-10 renal
[24] = tested on: UACC-257 melanoma
[25] = tested on: PC-3 prostate
[26] = tested on: HT29 colon
[27] = tested on: SF-295 CNS
[28] = tested on: MDA-N
[29] = tested on: SW-620 colon
[30] = tested on: BT-549 breast
[31] = tested on: NCI-H522 lung
[32] = tested on: NCI-H226 lung
[33] = tested on: M14 melanoma
[34] = tested on: OVCAR-3 ovarian
[35] = tested on: RXF 393 renal
[36] = tested on: ACHN renal
[37] = tested on: CAKI-1 renal
[38] = tested on: RPMI-8226 leukemia
[39] = tested on: MCF7 breast
[40] = tested on: 786-0 renal
[41] = tested on: OVCAR-5 ovarian
[42] = tested on: COLO 205 colon
[43] = tested on: K-562 leukemia
[44] = tested on: HCT-15 colon
[45] = tested on: NCI-H23 lung
[46] = tested on: A549 NSCLC
[47] = tested on: SK-MEL-5 melanoma
[48] = tested on: SK-OV-3 ovarian
[49] = tested on: HCT-116 colon
[50] = tested on: SN12C renal
[51] = tested on: DU-145 prostate
[52] = tested on: SK-MEL-2 melanoma
[53] = tested on: OVCAR-4 ovarian
[54] = tested on: LOX IMVI melanoma
[55] = tested on: A498 renal
[56] = tested on: T-47D breast
[57] = tested on: MDA-MB-231 breast
[58] = tested on: HS 578T breast
[59] = tested on: MDA-MB-435

N#C/C(=C\c1cc(Br)c(O)c(Br)c1)c1ccccn1
TGI [1]: > 100 µM
TGI [2]: > 100 µM
TGI [3]: 60 µM
TGI [4]: > 100 µM
TGI [5]: > 100 µM
TGI [6]: > 100 µM
TGI [7]: > 100 µM
TGI [8]: > 100 µM
TGI [9]: > 100 µM
TGI [10]: > 100 µM
TGI [11]: > 100 µM
TGI [12]: > 100 µM
TGI [13]: > 100 µM
TGI [14]: > 100 µM
TGI [15]: 46.2 µM
TGI [16]: > 100 µM
TGI [17]: 68.3 µM
TGI [18]: > 100 µM
TGI [19]: > 100 µM
TGI [20]: > 100 µM
TGI [21]: > 100 µM
TGI [22]: > 100 µM
TGI [23]: > 100 µM
TGI [24]: > 100 µM
TGI [25]: > 100 µM
TGI [26]: > 100 µM
TGI [27]: > 100 µM
TGI [28]: > 100 µM
TGI [29]: > 100 µM
TGI [30]: > 100 µM
TGI [31]: > 100 µM
TGI [32]: > 100 µM
TGI [33]: > 100 µM
TGI [34]: > 100 µM
TGI [35]: > 100 µM
TGI [36]: > 100 µM
TGI [37]: > 100 µM
TGI [38]: > 100 µM
TGI [39]: > 100 µM
TGI [40]: > 100 µM
TGI [41]: > 100 µM
TGI [42]: > 100 µM
TGI [43]: > 100 µM
TGI [44]: > 100 µM
TGI [45]: > 100 µM
TGI [46]: > 100 µM
TGI [47]: > 100 µM
TGI [48]: > 100 µM
TGI [49]: > 100 µM
TGI [50]: > 100 µM
TGI [51]: > 100 µM
TGI [52]: > 100 µM
TGI [53]: > 100 µM

Fc1ccc(-c2nnc3sc(-c4cc(Cl)cc(Cl)c4)nn23)cc1Cl
GI50 [1]: 39.3 µM
TGI [1]: > 100 µM
GI50 [2]: > 100 µM
TGI [2]: > 100 µM
GI50 [3]: 17.3 µM
TGI [3]: 43.6 µM
GI50 [4]: 72.9 µM
TGI [4]: > 100 µM
GI50 [5]: > 100 µM
TGI [5]: > 100 µM
GI50 [6]: > 100 µM
TGI [6]: > 100 µM
GI50 [7]: 13 µM
TGI [7]: 30.1 µM
GI50 [8]: 34.9 µM
TGI [8]: > 100 µM
GI50 [9]: > 100 µM
TGI [9]: > 100 µM
GI50 [10]: 46.6 µM
TGI [10]: > 100 µM
GI50 [11]: > 100 µM
TGI [11]: > 100 µM
GI50 [12]: 99.1 µM
TGI [12]: > 100 µM
GI50 [13]: 39.6 µM
TGI [13]: > 100 µM
GI50 [14]: 32.3 µM
TGI [14]: > 100 µM
GI50 [15]: 20.5 µM
TGI [15]: 52.4 µM
GI50 [16]: 53 µM
TGI [16]: > 100 µM
GI50 [17]: 37.7 µM
TGI [17]: > 100 µM
GI50 [18]: 29 µM
TGI [18]: 86.8 µM
GI50 [19]: 20.3 µM
TGI [19]: 42 µM
GI50 [20]: 13.3 µM
TGI [20]: 43.8 µM
GI50 [21]: 31.1 µM
TGI [21]: > 100 µM
GI50 [22]: > 100 µM
TGI [22]: > 100 µM
GI50 [23]: 20.5 µM
TGI [23]: 44 µM
GI50 [24]: 38.2 µM
TGI [24]: > 100 µM
GI50 [25]: 61.3 µM
TGI [25]: > 100 µM
GI50 [26]: 28.1 µM
TGI [26]: 83.3 µM
GI50 [27]: 74.2 µM
TGI [27]: > 100 µM
GI50 [29]: 45 µM
TGI [29]: > 100 µM
GI50 [30]: 87.1 µM
TGI [30]: > 100 µM
GI50 [54]: 32.8 µM
TGI [54]: > 100 µM
GI50 [31]: 49.7 µM
TGI [31]: > 100 µM
GI50 [32]: 34.3 µM
TGI [32]: > 100 µM
GI50 [33]: 41.3 µM
TGI [33]: > 100 µM
GI50 [55]: 29 µM
TGI [55]: 77.9 µM
GI50 [56]: > 100 µM
TGI [56]: > 100 µM
GI50 [34]: > 100 µM
TGI [34]: > 100 µM
GI50 [35]: 1.51 µM
TGI [35]: 26.4 µM
GI50 [36]: 21 µM
TGI [36]: 45.6 µM
GI50 [37]: 33.5 µM
TGI [37]: 96.4 µM
GI50 [38]: 46.8 µM
TGI [38]: > 100 µM
GI50 [39]: 30.5 µM
TGI [39]: > 100 µM
GI50 [40]: 29.7 µM
TGI [40]: > 100 µM
GI50 [41]: 70.1 µM
TGI [41]: > 100 µM
GI50 [42]: 56.6 µM
TGI [42]: > 100 µM
GI50 [57]: 17.2 µM
TGI [57]: 39.4 µM
GI50 [43]: > 100 µM
TGI [43]: > 100 µM
GI50 [44]: 72.5 µM
TGI [44]: > 100 µM
GI50 [45]: 37.2 µM
TGI [45]: > 100 µM
GI50 [46]: 24.4 µM
TGI [46]: 61.8 µM
GI50 [47]: > 100 µM
TGI [47]: > 100 µM
GI50 [58]: 45.2 µM
TGI [58]: > 100 µM
GI50 [48]: 24.6 µM
TGI [48]: 46.3 µM
GI50 [49]: 18.5 µM
TGI [49]: 44.2 µM
GI50 [50]: 34.2 µM
TGI [50]: > 100 µM
GI50 [51]: > 100 µM
TGI [51]: > 100 µM
GI50 [52]: > 100 µM
TGI [52]: > 100 µM
GI50 [59]: > 100 µM
TGI [59]: > 100 µM
GI50 [53]: 17.4 µM
TGI [53]: 53.4 µM

Reference: PubChem BioAssay (NCI)
